Test results from PubChem BioAssay AID1963866 (Molecular Pharmacology Branch, DTP, NCI, 2024).

Tested on: PDC KRAS tumor spheroids with HUVEC/MSC, viability
Test: Anticancer human tumor 349418-098-R-PDC patient-derived lung adenocarcinoma cell line growth inhibition [KRAS2]
Details: for IC50: curve of first compound; for viability, T/C: stronger effect = lower value
Procedure, shortened: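 Combination screen of spheroid viability in tumor-cell co-cultures with endothelial (HUVEC) and mesenchymal stem cell stroma. Each agent was tested in half-log dilutions, topping at clinical Cmax or at 10 microM without a known Cmax.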

[1] = second compound 0.1 µM, first compound 0.01 µM
[2] = second compound 0.1 µM, first compound 0.0316 µM
[3] = second compound 0.1 µM, first compound 0.1 µM
[4] = second compound 0.1 µM, first compound 0.316 µM
[5] = second compound 0.1 µM, first compound 1 µM
[6] = second compound 0.1 µM, first compound 3.16 µM
[7] = second compound 0.316 µM, first compound 0.01 µM
[8] = second compound 0.316 µM, first compound 0.0316 µM
[9] = second compound 0.316 µM, first compound 0.1 µM
[10] = second compound 0.316 µM, first compound 0.316 µM
[11] = second compound 0.316 µM, first compound 1 µM
[12] = second compound 0.316 µM, first compound 3.16 µM
[13] = second compound 1 µM, first compound 0.01 µM
[14] = second compound 1 µM, first compound 0.0316 µM
[15] = second compound 1 µM, first compound 0.1 µM
[16] = second compound 1 µM, first compound 0.316 µM
[17] = second compound 1 µM, first compound 1 µM
[18] = second compound 1 µM, first compound 3.16 µM
[19] = second compound 3.16 µM, first compound 0.01 µM
[20] = second compound 3.16 µM, first compound 0.0316 µM
[21] = second compound 3.16 µM, first compound 0.1 µM
[22] = second compound 3.16 µM, first compound 0.316 µM
[23] = second compound 3.16 µM, first compound 1 µM
[24] = second compound 3.16 µM, first compound 3.16 µM
[25] = second compound 10 µM, first compound 0.01 µM
[26] = second compound 10 µM, first compound 0.0316 µM
[27] = second compound 10 µM, first compound 0.1 µM
[28] = second compound 10 µM, first compound 0.316 µM
[29] = second compound 10 µM, first compound 1 µM
[30] = second compound 10 µM, first compound 3.16 µM
[31] = second compound 0.1 µM, first compound 10 µM
[32] = second compound 0.316 µM, first compound 10 µM
[33] = second compound 1 µM, first compound 10 µM
[34] = second compound 3.16 µM, first compound 10 µM
[35] = second compound 10 µM, first compound 10 µM
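Note: spheroids exposed to compounds for seven days before readout.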

With `CC1COCCN1c1cc(-c2ccnn2C)c2ccnc(-c3ccn[nH]3)c2n1` (stereo not given) + COc1cc2nc(C)nc(NC(C)c3cc(N)cc(C(F)(F)F)c3)c2cc1OC1CCOC1 the IC50 (second compound 0.1 µM) was less than 10 nM, the IC50 (second compound 0.316 µM) was 43.8 nM and the IC50 (second compound 1 µM) was 48.5 nM. For the same molecule, the IC50 (second compound 3.16 µM) was 42.7 nM, the IC50 (second compound 10 µM) was less than 10 nM and the viability, T/C [1] was 5.36%. It also gave a viability, T/C [2] of 8.3%, a viability, T/C [3] of 5.7% and a viability, T/C [4] of 5.49%. For the same molecule, the viability, T/C [5] was 6%, the viability, T/C [6] was 5.72% and the viability, T/C [7] was 170%. The viability, T/C [8] was 65.5%, the viability, T/C [9] was 10.9% and the viability, T/C [10] was 6.49%. The viability, T/C [11] was 5.47%, the viability, T/C [12] was 7.16% and the viability, T/C [13] was 167%. It also gave a viability, T/C [14] of 71.2%, a viability, T/C [15] of 13.9% and a viability, T/C [16] of 11.7%. The viability, T/C [17] was 7.84%, the viability, T/C [18] was 7.72% and the viability, T/C [19] was 146%. For the same molecule, the viability, T/C [20] was 63.1%, the viability, T/C [21] was 12.8% and the viability, T/C [22] was 7.88%. It also gave a viability, T/C [23] of 6.55%, a viability, T/C [24] of 9.36% and a viability, T/C [25] of 36.6%. It also gave a viability, T/C [26] of 14.1%, a viability, T/C [27] of 8.5% and a viability, T/C [28] of 6.86%. It also gave a viability, T/C [29] of 7.4% and a viability, T/C [30] of 5.53%.
With `CC1OCC2(CCN(c3cnc(Sc4ccnc(N)c4Cl)c(N)n3)CC2)C1N` (stereo not given) + COc1cc2nc(C)nc(NC(C)c3cc(N)cc(C(F)(F)F)c3)c2cc1OC1CCOC1 the IC50 (second compound 0.1 µM) was greater than 10000 nM, the IC50 (second compound 0.316 µM) was greater than 10000 nM and the IC50 (second compound 1 µM) was greater than 10000 nM. It also gave an IC50 (second compound 3.16 µM) greater than 10000 nM, an IC50 (second compound 10 µM) of less than 31.6 nM and a viability, T/C [2] of 101%. It also gave a viability, T/C [3] of 77.2%, a viability, T/C [4] of 54.4% and a viability, T/C [5] of 97.6%. The viability, T/C [6] was 85.6%, the viability, T/C [31] was 62.7% and the viability, T/C [8] was 114%. The viability, T/C [9] was 80.8%, the viability, T/C [10] was 54.5% and the viability, T/C [11] was 95.3%. It also gave a viability, T/C [12] of 95.3%, a viability, T/C [32] of 77.8% and a viability, T/C [14] of 124%. The viability, T/C [15] was 99.3%, the viability, T/C [16] was 67.7% and the viability, T/C [17] was 72.1%. For the same molecule, the viability, T/C [18] was 80%, the viability, T/C [33] was 74.1% and the viability, T/C [20] was 93.8%. It also gave a viability, T/C [21] of 77.7%, a viability, T/C [22] of 46% and a viability, T/C [23] of 62.6%. It also gave a viability, T/C [24] of 86.7%, a viability, T/C [34] of 57.1% and a viability, T/C [26] of 42.8%. It also gave a viability, T/C [27] of 29.8%, a viability, T/C [28] of 18.9% and a viability, T/C [29] of 24.1%. It also gave a viability, T/C [30] of 35.3% and a viability, T/C [35] of 19.2%.
`CCN1CCN(Cc2ccc(Nc3ncc(F)c(-c4cc(F)c5nc(C)n(C(C)C)c5c4)n3)nc2)CC1` + COc1cc2nc(C)nc(NC(C)c3cc(N)cc(C(F)(F)F)c3)c2cc1OC1CCOC1 showed an IC50 (second compound 0.1 µM) of less than 3.16 nM, an IC50 (second compound 0.316 µM) of 5.01 nM and an IC50 (second compound 1 µM) of 5.63 nM. The IC50 (second compound 3.16 µM) was less than 3.16 nM, the IC50 (second compound 10 µM) was less than 3.16 nM and the viability, T/C (second compound 0.1 µM, first compound 0.00316 µM) was 49.7%. For the same molecule, the viability, T/C [1] was 25.8%, the viability, T/C [2] was 25.5% and the viability, T/C [3] was 20.2%. It also gave a viability, T/C [4] of 14.2%, a viability, T/C [5] of 5.42% and a viability, T/C (second compound 0.316 µM, first compound 0.00316 µM) of 61.8%. It also gave a viability, T/C [7] of 33%, a viability, T/C [8] of 16.6% and a viability, T/C [9] of 16.1%. The viability, T/C [10] was 13.6%, the viability, T/C [11] was 4.29% and the viability, T/C (second compound 1 µM, first compound 0.00316 µM) was 69.3%. It also gave a viability, T/C [13] of 31.1%, a viability, T/C [14] of 14.2% and a viability, T/C [15] of 13.4%. It also gave a viability, T/C [16] of 10.5%, a viability, T/C [17] of 4.38% and a viability, T/C (second compound 3.16 µM, first compound 0.00316 µM) of 40.8%. It also gave a viability, T/C [19] of 25%, a viability, T/C [20] of 14.5% and a viability, T/C [21] of 11.7%. The viability, T/C [22] was 8.46%, the viability, T/C [23] was 1.57% and the viability, T/C (second compound 10 µM, first compound 0.00316 µM) was 11.7%. The viability, T/C [25] was 8.02%, the viability, T/C [26] was 4.11% and the viability, T/C [27] was 2.43%. For the same molecule, the viability, T/C [28] was 0.61% and the viability, T/C [29] was 0.15%.
`CCNC(=O)CC1N=C(c2ccc(Cl)cc2)c2cc(OC)ccc2-n2c(C)nnc21` (stereo not given) + COc1cc2nc(C)nc(NC(C)c3cc(N)cc(C(F)(F)F)c3)c2cc1OC1CCOC1 was tested, and the IC50 (second compound 0.1 µM) was 93 nM, the IC50 (second compound 0.316 µM) was 106 nM and the IC50 (second compound 1 µM) was 99 nM. It also gave an IC50 (second compound 3.16 µM) of 56.5 nM, an IC50 (second compound 10 µM) of less than 31.6 nM and a viability, T/C [2] of 80%. It also gave a viability, T/C [3] of 48%, a viability, T/C [4] of 20.6% and a viability, T/C [5] of 7.27%. It also gave a viability, T/C [6] of 2.39%, a viability, T/C [31] of 0.58% and a viability, T/C [8] of 105%. It also gave a viability, T/C [9] of 51.4%, a viability, T/C [10] of 21.9% and a viability, T/C [11] of 7.39%. For the same molecule, the viability, T/C [12] was 2.09%, the viability, T/C [32] was 0.7% and the viability, T/C [14] was 85.2%. The viability, T/C [15] was 49.9%, the viability, T/C [16] was 16.4% and the viability, T/C [17] was 6.15%. It also gave a viability, T/C [18] of 1.76%, a viability, T/C [33] of 0.68% and a viability, T/C [20] of 65.5%. For the same molecule, the viability, T/C [21] was 34.8%, the viability, T/C [22] was 13.5% and the viability, T/C [23] was 5.23%. The viability, T/C [24] was 1.41%, the viability, T/C [34] was 0.77% and the viability, T/C [26] was 17%. The viability, T/C [27] was 10.3%, the viability, T/C [28] was 6.19% and the viability, T/C [29] was 1.96%. The viability, T/C [30] was 0.42% and the viability, T/C [35] was 0.33%.
`Cn1nccc1Nc1nccc(-c2cc3c(s2)C(C)(C)N(CCN2CCOCC2)C3=O)n1` + COc1cc2nc(C)nc(NC(C)c3cc(N)cc(C(F)(F)F)c3)c2cc1OC1CCOC1 gave an IC50 (second compound 0.1 µM) of 52.4 nM, an IC50 (second compound 0.316 µM) of 37.4 nM and an IC50 (second compound 1 µM) of 36.3 nM. It also gave an IC50 (second compound 3.16 µM) of less than 31.6 nM, an IC50 (second compound 10 µM) of less than 31.6 nM and a viability, T/C [2] of 71.1%. It also gave a viability, T/C [3] of 22.4%, a viability, T/C [4] of 12.5% and a viability, T/C [5] of 7.65%. The viability, T/C [6] was 6.07%, the viability, T/C [31] was 4.14% and the viability, T/C [8] was 55.6%. It also gave a viability, T/C [9] of 19%, a viability, T/C [10] of 12.2% and a viability, T/C [11] of 6.27%. For the same molecule, the viability, T/C [12] was 6.54%, the viability, T/C [32] was 4.93% and the viability, T/C [14] was 53.4%. For the same molecule, the viability, T/C [15] was 24.2%, the viability, T/C [16] was 8.8% and the viability, T/C [17] was 7.31%. It also gave a viability, T/C [18] of 5.44%, a viability, T/C [33] of 4.32% and a viability, T/C [20] of 41.8%. For the same molecule, the viability, T/C [21] was 19.1%, the viability, T/C [22] was 7.42% and the viability, T/C [23] was 5.91%. The viability, T/C [24] was 4.66%, the viability, T/C [34] was 4.79% and the viability, T/C [26] was 15.1%. It also gave a viability, T/C [27] of 7.62%, a viability, T/C [28] of 4.31% and a viability, T/C [29] of 3.93%. For the same molecule, the viability, T/C [30] was 2.92% and the viability, T/C [35] was 2.13%.
